The results in this text go back to patent US12286661B2, “Methods for making high intensity sweeteners” (Firmenich Incorporated, priority 2018, dated 2025).

One series deals with Y. lipolytica. The series can be described thus: Hydrolysis by hydrolytic enzymes of yeast grown in the presence of the compound, HPLC of lysed cells. The format is cell-based. The protocol: (§1) S. cerevisiae or Y. lipolytica was grown in the presence of Mogroside V to allow the hydrolytic enzymes in the yeast to generate Mogroside IIIE. After 1 or 2 days, the cells were lysed in analyzed by HPLC to determine the mogroside content.
(§2) S. cerevisiae or Y. lipolytica was grown in the presence of Compound 1.

The test system of another series is S. cerevisiae. The series is described as above. The format is cell-based. Conditions: for mogroside content after incubation: S. cerevisiae. As to the method: as §1, §2
For series [1], the system named is Saccharomyces cerevisiae, Yarrowia lipolytica and Candida bombicola. In words: Tolerance to microbial hydrolysis: yeast strains incubated in YPD with 1 mg/ml compound, supernatants analysed by HPLC. The format is cell-based. The settings on record: after 3 days. As to the method:
Yeast strains Saccharomyces cerevisiae, Yarrowia lipolytica and Candida bombicola, were incubated in YPD supplemented with 1 mg/ml Mogroside V or Compound 1. After 3 days, supernatants were analyzed by HPLC.

The test system of a further series is mogrol precursors. The series can be described thus: Mogrol production by EPHs tested in a yeast strain producing mogrol precursors. The format is cell-based. From the text:
DNA was obtained through gene synthesis either through Genescript, IDT, or Genewiz. For some of the cucurbitadienol synthases, cDNA or genomic DNA was obtained through 10-60 day old seedlings followed by PCR amplification using specific and degenerate primers. DNA was cloned through standard molecular biology techniques or through yeast gap repair cloning (Joska et al., 2014) into one of the following overexpression vectors: pESC-Ura, pESC-His, or pESC-LEU. Gene expression was regulated by one of the following promoters; Gall, Gal10, Tef1, or GDS. Yeast transformation was performed using Zymo Yeast Transformation Kit II. Yeast strains were grown in standard media (YPD or SC) containing the appropriate selection with 2% glucose or 2% galactose for induction of heterologous genes. Yeast strains were grown in shake flask or 96 well plates at 30° ° C., 140-250 rpm. When indicated, lanosterol synthase inhibitor, Ro 48-8071 (Cayman Chemicals) was added (50 ug/ml). […]

Series [2] deals with cucurbitadienol synthase activity. In words: Cucurbitadienol synthase activities of fusion proteins in yeast strain with oxidosqualene boost, LCMS. The format is cell-based, S. cerevisiae. Conditions: average % activities over the average activities of the parent enzyme (Cucumis melo cucurbitadienol synthase). The protocol: For analyzing cucurbitadienol, the first LCMS method included the use of C4 2.1×100 mm column, gradient 1 to 95% B for 6 minutes, and at flow rate of 0.55 ml/min; and the second LCMS method included the use of Waters Acquity UPLC Protein BEH C4 2.1×100 […], 1.7 μm, with guard, 62 to 67% B for 2 min, 100% B for 1 min, and at flow rate of 0.9 ml/min and ESI source positive single ion monitoring of 427 and 409.
The gene encoding for a cucurbitadienol synthase form Cucumis melo was codon optimized (SEQ ID: 907) and used as a starting point for generating a library of modifications. Modifications were introduced through standard molecular biology techniques consisting of fusion peptides at the N-terminus (i.e., 5′) or C-terminus (i.e., 3′) end of the enzyme. Plasmids libraries of modified cucurbitadienol synthase genes were transformed into a yeast strain with oxidosqualene boost. Enzyme activities were measured by ratios of peak heights or areas of 409 and 427 positive mass fragments at the expected retention times for cucurbitadienol vs. an internal standard using LCMS method 2 described above. Enzyme performance were scored as average % activities over the average activities of the parent enzyme (n=8). Step 1 sequences of the enzymes and the sequences that encode the enzyme can be found in SEQ ID NOs: 951-1012. Step 1 sequence also include the fusions SS2c-G10, SS2e-A7b, SS2d-G11. […]

“Also recorded” adds a separate entry of the source.

As for `C[C@H](CC[C@@H](O[C@@H]1O[C@H](CO[C@@H]2O[C@H](CO)[C@@H](O)[C@H](O)[C@H]2O)[C@@H](O)[C@H](O)[C@H]1O[C@@H]1O[C@H](CO)[C@@H](O)[C@H](O)[C@H]1O)C(C)(C)O)[C@H]1CC[C@@]2(C)[C@@H]3CC=C4[C@@H](CC[C@H](O[C@@H]5O[C@H](CO[C@@H]6O[C@H](CO)[C@@H](O)[C@H](O)[C@H]6O)[C@@H](O)[C@H](O)[C@H]5O)C4(C)C)[C@]3(C)[C@H](O)C[C@]12C` [Mogroside V, reference compound], the “mogroside content after incubation” value in the series on Y. lipolytica (Y. lipolytica, 2 days of incubation) is “produced mostly Mogroside IIIE”; in the series with S. cerevisiae (1 day of incubation) it was “produced a mixture of Mogroside V, Mogrosides IV, and Mogroside IIIE”; in the series with S. cerevisiae (2 days of incubation), “substantially all of the mogrosides were converted to Mogroside IIIE”. Further, the “hydrolysis by yeast strains (hydrolysis products by HPLC)” value in series [1] was “hydrolyzed Mogroside V to Mogroside IIIE”.
On to `C[C@H](CC[C@@H](O[C@@H]1O[C@H](CO[C@H]2O[C@H](CO)[C@@H](O)[C@H](O)[C@H]2O)[C@@H](O)[C@H](O)[C@H]1O[C@@H]1O[C@H](CO)[C@@H](O)[C@H](O)[C@H]1O)C(C)(C)O)C1CC[C@@]2(C)C3CC=C4C(CC[C@H](O[C@@H]5O[C@H](CO)[C@@H](O)[C@H](O)[C@H]5O)C4(C)C)[C@]3(C)[C@H](O)C[C@]12C` (stereo partly drawn) [Compound 1], for which the hydrolysis products result in the series with Y. lipolytica (Y. lipolytica grown in the presence of the compound) and in the series on S. cerevisiae (S. cerevisiae grown in the presence of the compound) was “no hydrolysis products due to hydrolysis of Compound 1 was observed; also recorded: no hydrolysis product from Compound 1 was detected” each time. Moreover, the “hydrolysis by yeast strains (hydrolysis products by HPLC)” value in series [1] is “no hydrolysis products observed; also recorded: tolerance of Compound 1 to hydrolysis by microbial enzymes”.

B1: SEQ ID NO. 1072 and 1073: epoxide hydrolase (EPH); coding DNA and protein sequence (protein)
chain: MDAIQHTTIKTNGIKMHIASVGNGPVVLLLHGFPELWYSWRHQLLYLSSVGYRAIAPDLRGYGDTDSPESHTSYTALHIVGDLVGALDELGIEKVFLVGHDWGAIIAWYFCLFRPERIKALVNLSVQFFPRNPAISFIQRFRAAYGDDFYMCRFQVPGEAEADFACIDTAQLFKTTLSNRSTKAPCLPKEYGFRAIPPPENLPSWLTEEDINYYAAKFKETGFTGALNYYRAFDLTWELTAPWTGVQIQVPVKFIVGDSDLTYHFKGAKEYIHEGGFKRDVPLLEEVVIVENAGHFVHEEKPHEINTHIHDFIKKF
modifications: Cucumis melo
Regarding B1, the “ability to produce mogrol” value with mogrol precursors is reported as “showed the ability to produce mogrol”.

B2: SEQ ID NO 1024: fusion protein having cucurbitadienol synthase activity (protein, listed as Citrullus lanatus)
chain: MWTILLGLATLAIAYYIHWVNKWKDSKFNGVLPPGTMGLPLIGETIQLSRPSDSLDVHPFIQSKVKRYGPIFKTCLAGRPVVVSTDAEFNHYIMLQEGRAVEMWYLDTLSKFFGLDTEWLKALGLIHKYIRSITLNHFGAESLRERFLPRIEESARETLHYWSTQPSVEVKESAAAMVFRTSIVKMFSEDSSKLLTGGLTKKFTGLLGGFLTLPLNLPGTTYNKCIKDMKEIQKKLKDILEERLAKGTGNDEDFLGQAIKDKESQQFISEEFIIQLLFSISFASFESISTSLTLILKFLADHPQVVKELEAEHEAIQKARADPDGPITWEEYKSMTFTLNVISETLRLGSVTPALLRKTTKEIQIKGYTIPEGWTVMLVTASRHRDPEVYKDPDTFNPWRWKELDSITVQKNFMPFGGGLRHCAGAEYSKVYLCTFLHILFTKYRWTKLKGGKIARAHILRFEDGLHVKFTPKE
Consider B2, for which the “Activity (as compared to the parent)” value in series [2] was 166%.
